From US20240398775A1, “PHARMACEUTICAL COMPOSITION FOR USE IN TREATING COGNITIVE DECLINE OR FOR USE IN TREATING OVERWEIGHT OR OBESITY” (University of the Ryukyus, priority 2021, published 2024)

What was measured:
[1] = system: GluA1; assay: BS3 crosslinking assay / Western blot of GluA1 subunit; format: in vivo, mouse; conditions: HFD-fed mice treated with PER, n=4; HFD gave 3-fold increase vs CD
Method: Crosslinking using the BS^3 procedure carried out here was carried out based on previously described methods (60). Hippocampal slices of 17 to 18 week old male C57BL/6J background mice (CD, HFD, and HFD with PER treatment) or 12 to 13 week old ob/ob mice (ob/ob, and ob/ob with PER treatment) were prepared as previously reported (56, 57). Hippocampal slices were prepared and collected, and then CA1, CA2, CA3, DG, and EC regions were separated from the hippocampal slices using a dissection knife. […] The total protein concentration of the lysate was measured using the Lowry method (61). […] BS^3 samples were analyzed by SDS-PAGE directly without purification, and surface and intracellular bands were measured in the same lane, thus no normalization was required and sample throughput was improved. […] Membranes were incubated with HRP-labeled anti-rabbit IgG (1:3,000, Cell Signaling Technology, Danvers, MA, USA) for 30 min and extensively washed again with TBS-T. After soaking the membrane in the chemiluminescence detection substrate Chemi-Lumi One (Nacalai Tesque, Tokyo, Japan) for 1 min, luminescence was detected using a LuminoGraph1 imaging system (Atto, Tokyo, Japan). The surface and intracellular bands of each lane were analyzed using a CS Analyzer (Atto, Tokyo, Japan). […]

[2] = system: Thy-1+-eYFP neuronal cells; assay: Quantification of Thy1-eYFP neurons (CLARITY); format: in vivo, mouse; conditions: HFD mice treated with PER, p<0.001, n=4
Description: Coronal sections of mouse brains from Bregma-0.94 mm to Bregma-4.04 mm (5 mm wide, including the entire hippocampus from dorsal to ventral, medial to lateral) were fixed with 4% paraformaldehyde for 2 days, and then stained with the Golgi Cox staining system (FD Rapid GolgiStain™ Kit, MD 21041, USA). The impregnated tissues were cut into 100 μm sections and counterstained with crystal violet, and the total number of 15 μm spines on the apical dendrites of CA1 and DG and the percentage of morphologic spines (thin, stubby, mushroom) were examined using an Axio Observer Z1 (Carl Zeiss, Germany). Another set of paraformaldehyde-fixed 5 mm wide coronal sections of the brain, including the entire hippocampus, were processed using the passive CLARITY technique (PACT) (62) and examined through Lightsheet Z.1 (Carl Zeiss, Germany) using a 10× clear objective lens, and 3D images of Thy1-YFPH transgenic mice (the Jackson Laboratory, stock number: 003709, strain name: B6. Cg-Tg. (Thy1-YFP) 16Jrs/J) (63, 64), HFD-fed mice, and whole hippocampus of the HFD-fed mice with PER treatment. were acquired respectively. Maximum intensity projection images were acquired along the Z dimension, time dimension, and channel dimension to create an output image with the pixel containing the maximum value for all images in the stack at a particular pixel position. […]

[3] = system: NL(−/−) mice; assay: Bicculine-induced epileptiform reactions in NL(−/−) mice; format: in vivo, mouse; conditions: perampanel administration
Description: Epilepsy occurs more frequently in AD patients than in the control population (Pascal E 2012), and the incidence of epilepsy increases to 7 to 21% (Amatniek et al., 2006; Hauser et al., 1986; Mendez and Lim, 2003) in sporadic AD patients and 30% in early-onset familial AD (FAD) (Palop and Mucke, 2009; Larner and Doran, 2006). Early latent hippocampal hyperexcitability was detected in AD patients (Lam A D et al., Nat Med 2017). […] In particular, in NL-G-F(−/−) mice (15 to 17 weeks old), significant enhancement of epileptiform reactions in the CA1 and CA2 regions was confirmed by Bicculine (BIC) (refer to FIG. 32). […] In an animal model of AD in which amyloid β is accumulated, it has been reported that an epileptiform reaction is enhanced (Busche, 2008; 2012). Also in this experiment, epileptic induction by bicrine was enhanced in both NL(−/−) mice and NL-G-F(−/−) (15 to 17 weeks old (W)) as compared with control mice.

[4] = system: Ca2+ permeable AMPAR (CP-AMPAR); assay: Ca2+ imaging (Fluo-3) of hippocampal brain slices, AMPA + CTZ application (CP-AMPA reaction); format: cell-based, mouse
[5] = HFD-fed mice with oral PER 5 mg/kg/day, AMPA 100 μM + CTZ 100 μM, N = 5

## N#Cc1ccccc1-c1cc(-c2ccccn2)cn(-c2ccccc2)c1=O [PER, 3-(2-cyanophenyl)-5-(2-pyridyl)-1-phenyl-1,2-dihydropyridine-2-one]
[1]
  GluA1 in CA3 (BS3 crosslinking): reduced GluA1 to basal levels
[2]
  number of Thy-1+-eYFP neuronal cells in CA3: significantly restored
[3]
  epileptiform reactions induced by bicculine: almost completely abolished
[4]
  increase in [Ca2+]i via pathological AMPARs: completely disappeared
  inhibitory effect on CP-AMPAR in EC, CA1, CA2, CA3 and DG: significant inhibitory effect
[4]; [5]
  CP-AMPA reaction CA1 (maximum value of NF525): 1.00 ± 0.01
  CP-AMPA reaction CA2 (maximum value of NF525): 1.00 ± 0.02
  CP-AMPA reaction CA3 (maximum value of NF525): 1.00 ± 0.01
  CP-AMPA reaction DG (maximum value of NF525): 1.02 ± 0.01
  CP-AMPA reaction EC (maximum value of NF525): 1.05 ± 0.05
[4]; acute slices from HFD-fed mice, 100 μM PER applied
  elevation of [Ca2+]i via AMPAR: completely disappeared
[4]; hippocampal slices from mice fed HFD and PER 5 mg/kg/day orally by hydrogel
  transmission via AMPAR: normalize transmission via AMPAR
